Experimental data published in ChEMBL document CHEMBL5113514 (J Med Chem, 2022).
Calls of active or inactive are those of the source. The rule behind the calls is not given here.

How the values were obtained:
Mus musculus [1] = test: Antiseizure activity against electrical stimulus induced seizure in ip dosed CD-1 mouse model assessed as normal behavior within 10 seconds after stimulation at 6 Hz and 32 mA for 3 secs pretreated for 0.5 hr by psychomotor seizure test; assay type: functional, organism-based
Mus musculus [2] = test: Antiseizure activity against ScPTZ-induced seizure in ip dosed CD-1 mouse model assessed as clonic seizures pretreated for 0.5 hrs and measured after 30 mins by subcutaneous pentylenetetrazole test; assay type: functional, organism-based
[3] = biological target: Synaptic vesicle glycoprotein 2A (Mus musculus, UniProt Q9JIS5); test: Binding affinity to mouse SV2A in presence of levetiracetam by radioligand binding assay
Chain of Synaptic vesicle glycoprotein 2A (Q9JIS5 whole entry): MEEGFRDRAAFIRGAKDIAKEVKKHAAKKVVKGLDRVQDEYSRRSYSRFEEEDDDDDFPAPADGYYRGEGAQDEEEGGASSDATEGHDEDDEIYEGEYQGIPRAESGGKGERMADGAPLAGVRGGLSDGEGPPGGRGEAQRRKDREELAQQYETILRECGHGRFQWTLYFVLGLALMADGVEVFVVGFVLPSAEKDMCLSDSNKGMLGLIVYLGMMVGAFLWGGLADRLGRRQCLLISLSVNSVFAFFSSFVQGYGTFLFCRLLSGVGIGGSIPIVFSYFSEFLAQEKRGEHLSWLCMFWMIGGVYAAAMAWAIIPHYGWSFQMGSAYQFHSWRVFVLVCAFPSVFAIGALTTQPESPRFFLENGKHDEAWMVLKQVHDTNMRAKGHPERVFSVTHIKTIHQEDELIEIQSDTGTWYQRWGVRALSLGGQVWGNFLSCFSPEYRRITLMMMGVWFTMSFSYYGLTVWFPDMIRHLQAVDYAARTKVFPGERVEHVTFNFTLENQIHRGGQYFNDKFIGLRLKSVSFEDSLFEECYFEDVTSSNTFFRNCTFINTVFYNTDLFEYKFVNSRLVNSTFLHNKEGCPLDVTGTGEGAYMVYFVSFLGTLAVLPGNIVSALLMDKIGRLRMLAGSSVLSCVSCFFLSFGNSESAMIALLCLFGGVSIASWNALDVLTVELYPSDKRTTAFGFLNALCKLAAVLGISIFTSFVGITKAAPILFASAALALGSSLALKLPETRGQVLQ

Mus musculus [4] = test: Antiseizure activity against electrical stimulus induced seizure in ip dosed CD-1 mouse model assessed as reduction in hindlimb tonic extension pretreated for 1 hr by maximal electroshock seizure test; assay type: functional, organism-based
Mus musculus [5] = test: Antiseizure activity against ScPTZ-induced seizure in ip dosed CD-1 mouse model assessed as clonic seizures pretreated for 1 hr and measured after 30 mins by subcutaneous pentylenetetrazole test; assay type: functional, organism-based
Homo sapiens = organism: Homo sapiens; test: Binding affinity to TTX-sensitive sodium channel (unknown origin) at 100 uM
Mus musculus [6] = organism: Mus musculus; test: animal or person; conditions: CD-1, 0.5 h
Mus musculus [7] = test: Anti-seizure activity against electrical stimulus induced seizure in ip dosed CD-1 mouse model assessed as normal behavior within 10 seconds after stimulation at 6 Hz and 32 mA for 3 secs pretreated for […] by psychomotor seizure test; assay type: functional, organism-based
Mus musculus [8] = test: Antiseizure activity against ScPTZ-induced seizure in ip dosed CD-1 mouse model assessed as clonic seizures pretreated for […] and measured after 30 mins by subcutaneous pentylenetetrazole test; assay type: functional, organism-based
[9] = biological target: Voltage-dependent T-type calcium channel subunit alpha-1H (Homo sapiens) (UniProt O95180); test: Binding affinity to human Cav3.2 at 100 uM by Qpatch electrophysiological assay
Chain of Voltage-dependent T-type calcium channel subunit alpha-1H (Homo sapiens) (O95180 whole entry): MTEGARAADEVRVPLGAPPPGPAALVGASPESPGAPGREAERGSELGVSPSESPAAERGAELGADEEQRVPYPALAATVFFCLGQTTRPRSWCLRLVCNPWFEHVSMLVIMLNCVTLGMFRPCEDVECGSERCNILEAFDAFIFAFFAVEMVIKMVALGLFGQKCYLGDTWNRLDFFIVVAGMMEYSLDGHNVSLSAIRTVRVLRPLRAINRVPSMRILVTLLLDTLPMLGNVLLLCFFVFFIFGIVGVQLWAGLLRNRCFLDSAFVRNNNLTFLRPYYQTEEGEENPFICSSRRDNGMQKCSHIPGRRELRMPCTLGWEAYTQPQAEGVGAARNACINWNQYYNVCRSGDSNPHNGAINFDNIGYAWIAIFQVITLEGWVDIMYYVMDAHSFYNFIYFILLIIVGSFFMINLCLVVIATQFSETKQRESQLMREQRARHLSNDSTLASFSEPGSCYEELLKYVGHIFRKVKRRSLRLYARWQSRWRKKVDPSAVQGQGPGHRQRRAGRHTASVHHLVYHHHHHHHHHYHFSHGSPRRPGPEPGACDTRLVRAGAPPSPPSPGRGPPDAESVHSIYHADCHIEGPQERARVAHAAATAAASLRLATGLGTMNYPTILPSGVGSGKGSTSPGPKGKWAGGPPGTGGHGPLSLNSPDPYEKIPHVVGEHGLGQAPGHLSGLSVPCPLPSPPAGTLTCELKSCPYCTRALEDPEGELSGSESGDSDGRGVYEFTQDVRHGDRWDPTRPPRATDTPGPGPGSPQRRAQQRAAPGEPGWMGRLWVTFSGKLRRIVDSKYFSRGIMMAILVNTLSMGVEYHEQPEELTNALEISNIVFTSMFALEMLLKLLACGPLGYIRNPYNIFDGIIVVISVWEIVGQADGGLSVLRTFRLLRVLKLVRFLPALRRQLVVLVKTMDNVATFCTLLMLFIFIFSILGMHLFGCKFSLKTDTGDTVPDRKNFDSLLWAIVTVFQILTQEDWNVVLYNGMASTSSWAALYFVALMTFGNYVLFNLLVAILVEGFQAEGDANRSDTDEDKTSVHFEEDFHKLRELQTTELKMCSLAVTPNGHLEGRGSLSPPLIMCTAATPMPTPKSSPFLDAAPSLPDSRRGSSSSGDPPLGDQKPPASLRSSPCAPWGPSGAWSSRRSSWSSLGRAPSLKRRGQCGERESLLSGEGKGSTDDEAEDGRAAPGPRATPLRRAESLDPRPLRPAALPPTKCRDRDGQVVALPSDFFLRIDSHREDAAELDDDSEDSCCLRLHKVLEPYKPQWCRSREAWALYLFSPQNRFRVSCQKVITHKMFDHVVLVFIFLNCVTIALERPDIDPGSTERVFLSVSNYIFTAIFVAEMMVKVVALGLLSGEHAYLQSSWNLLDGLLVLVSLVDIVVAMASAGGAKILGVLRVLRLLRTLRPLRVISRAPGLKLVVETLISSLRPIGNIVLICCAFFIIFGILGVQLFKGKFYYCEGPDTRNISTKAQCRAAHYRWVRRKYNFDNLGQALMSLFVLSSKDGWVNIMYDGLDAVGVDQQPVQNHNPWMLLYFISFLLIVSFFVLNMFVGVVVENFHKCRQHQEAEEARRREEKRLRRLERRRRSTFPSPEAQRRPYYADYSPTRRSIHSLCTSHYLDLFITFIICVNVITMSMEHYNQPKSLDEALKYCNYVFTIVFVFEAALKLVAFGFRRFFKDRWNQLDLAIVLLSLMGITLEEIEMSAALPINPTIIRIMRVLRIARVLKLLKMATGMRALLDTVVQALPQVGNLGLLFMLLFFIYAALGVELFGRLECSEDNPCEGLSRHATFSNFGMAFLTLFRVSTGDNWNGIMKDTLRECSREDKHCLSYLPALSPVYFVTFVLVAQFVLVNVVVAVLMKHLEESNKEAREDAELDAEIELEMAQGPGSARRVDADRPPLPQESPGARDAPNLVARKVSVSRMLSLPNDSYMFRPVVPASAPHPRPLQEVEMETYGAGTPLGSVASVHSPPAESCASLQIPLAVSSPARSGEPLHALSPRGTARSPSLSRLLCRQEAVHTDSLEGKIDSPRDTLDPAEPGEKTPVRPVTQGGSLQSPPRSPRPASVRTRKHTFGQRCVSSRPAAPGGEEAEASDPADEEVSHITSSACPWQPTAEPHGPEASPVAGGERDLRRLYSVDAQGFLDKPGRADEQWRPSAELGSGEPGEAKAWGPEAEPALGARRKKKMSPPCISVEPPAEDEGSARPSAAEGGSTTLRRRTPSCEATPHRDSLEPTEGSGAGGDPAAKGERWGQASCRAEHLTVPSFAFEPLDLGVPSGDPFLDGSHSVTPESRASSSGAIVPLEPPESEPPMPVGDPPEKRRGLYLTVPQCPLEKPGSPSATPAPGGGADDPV

Work on `CCCC(CCC)C(=O)O` [VALPROIC ACID] yielded an EC50 (Mus musculus [1]) of 130.6 mg/kg and an EC50 (Mus musculus [2]) of 239.4 mg/kg.
`C[C@@H](C(=O)NCc1ccccc1)N1C(=O)CCC1=O` was tested, and the Ki [3] was greater than 250 µM.
Molecule `C=C(C)[C@@H]1CCC(C)=C[C@H]1c1c(O)cc(CCCCC)cc1O` [CANNABIDIOL] has an EC50 (Mus musculus [4]) of 80 mg/kg and an EC50 (Mus musculus [5]) of 120 mg/kg.
`CC[C@@H](C(N)=O)N1CCCC1=O` gave an EC50 (Mus musculus [4]) greater than 500 mg/kg.
`C[C@H](C(=O)NCc1ccccc1)N1C(=O)CCC1=O` gave a Ki [3] greater than 250 µM.
With `COC[C@@H](NC(C)=O)C(=O)NCc1ccccc1` [LACOSAMIDE] the EC50 (Mus musculus [1]) was 5.3 mg/kg, the Activity (Homo sapiens) was “Active” and the ED50 (Mus musculus [6]) was 92 mg/kg.
For `CCC1(C)CC(=O)NC1=O` (stereo not drawn) [ETHOSUXIMIDE], the EC50 (Mus musculus [7]) was greater than 200 mg/kg, the EC50 (Mus musculus [8]) was 140.4 mg/kg and the Activity [9] was “Active”.
